In EP2060268A1, “Pharmaceutical compositions for pulmonary or nasal delivery of peptides” (NOVO NORDISK A/S, priority 2007, dated 2009):
Ends that are not written are not given here.

What was measured:
[1] = treated test animals; e.g. provoking marked hyperlactemia followed by hyperglycemia; cited from earlier work
[2] = when compared to human amylin; cited from earlier work
[3] = Enhancement of peptide absorption in the lung by absorption enhancers (animal model); format: in vivo; details: tested as absorption enhancer, pulmonary route
[4] = Pharmacokinetics after intra-tracheal dry powder delivery to anaesthetised pigs; format: in vivo; details: pig, inhaled or intranasal, pramlintide/insulin aspart powder delivered intra-tracheally, plasma
Experimental: For pulmonary delivery the PennCentury™ DP-4 dry powder insufflator (Penn-Century Inc) modified for pigs was used in combination with the PennCentury™ adjustable air pump, model AP-1 (Penn-Century Inc). The powder is weighed into the sample chamber of the device and manually emitted from the device by using the AP-1 adjustable pump.
The pigs were fasted for approximately 18 h before the experiment. Anaesthesia was induced by injecting Domitor IV (1 mg/mL, 0.4 mL/pig), followed by slow IV infusion of Propofol (10 mg/ml) until the sufficient depth of anaesthesia was obtained, approximately 10-15 mL/pig in total. Atropin (1 mg/ml, 0.5 mL/pig) was injected i.m. to stabilize cardiac parameters and to decrease bronchial secretions. After anaesthesia (and) the pigs were intubated with an endotracheal tube size 8.0 mm. Via an L-piece and the endotraceal tube the pigs were connected to a respirator, with respiration frequency set to 10/min and tidal volume to 300 mL/breath to mimic deep inhalations in humans. […]
Insulin aspart was analyzed using an in-house LOCI sandwich immunoassay with two different antibodies. […] Pramlintide was analyzed using a commercially available human amylin ELISA kit modified for porcine samples (Linco Research, cat. no. EZHA-52K). […]

[5] = cited from earlier work

## ^18Arg^25, 28Pro-h-amylin
[1]
  amylin activity in vivo: show amylin activity in vivo
[2]
  solubility and stability characteristics: more desirable solubility and stability characteristics

## Dimethyl-β-cyclodextrin
[3]
  enhancement of peptide absorption in the lung: absorption enhancing effect

## C[C@H](CCC(=O)O)[C@H]1CC[C@H]2[C@@H]3[C@@H](O)C[C@@H]4C[C@H](O)CC[C@]4(C)[C@H]3CC[C@]12C [ursodeoxycholate]
[3]
  enhancement of peptide absorption in the lung: effectively enhance peptide absorption in the lung

## C[C@H](CCC(=O)NCC(=O)O)[C@H]1CC[C@H]2[C@@H]3[C@H](O)C[C@@H]4C[C@H](O)CC[C@]4(C)[C@H]3C[C@H](O)[C@]12C [glycocholate]
[3]
  enhancement of peptide absorption in the lung: effectively enhance peptide absorption in the lung

## lysophospatidylcholine
[3]
  enhancement of peptide absorption in the lung: effective enhancer

## CC[C@H](C)[C@H](NC(=O)[C@@H]1CCCN1C(=O)CNC(=O)[C@H](Cc1ccccc1)NC(=O)[C@H](CC(N)=O)NC(=O)[C@H](CC(N)=O)NC(=O)[C@H](CO)NC(=O)[C@H](CO)NC(=O)[C@H](Cc1c[nH]cn1)NC(=O)[C@@H](NC(=O)[C@H](CC(C)C)NC(=O)[C@H](Cc1ccccc1)NC(=O)[C@H](CC(N)=O)NC(=O)[C@H](C)NC(=O)[C@H](CC(C)C)NC(=O)[C@H](CCCNC(=N)N)NC(=O)[C@H](CCC(N)=O)NC(=O)[C@@H](NC(=O)[C@H](C)NC(=O)[C@@H]1CSSC[C@H](NC(=O)[C@@H](N)CCCCN)C(=O)N[C@@H](CC(N)=O)C(=O)N[C@@H]([C@@H](C)O)C(=O)N[C@@H](C)C(=O)N[C@@H]([C@@H](C)O)C(=O)N1)[C@@H](C)O)C(C)C)C(=O)N[C@@H](CC(C)C)C(=O)N1CCC[C@H]1C(=O)N1CCC[C@H]1C(=O)N[C@H](C(=O)N[C@@H](CC(N)=O)C(=O)N[C@H](C(=O)NCC(=O)N[C@@H](CO)C(=O)N[C@@H](CC(N)=O)C(=O)N[C@H](C(=O)N[C@@H](Cc1ccc(O)cc1)C(N)=O)[C@@H](C)O)C(C)C)[C@@H](C)O [Symlin, ^25,28,29Pro-h-amylin]
[4]
  Tmax: 40 min
[5]; after a subcutaneous injection
  time to reach Cmax: approximately 20 minutes
[5]; subcutaneous injection
  plasma t½: approximately 20 minutes
[2]
  solubility and stability characteristics: more desirable solubility and stability characteristics

## CC(=O)OC1CC2(C)C(CC(O)C3C4(C)CCC(O)C(C)C4CCC32C)C1=C(CCCC(C)C)C(=O)NCCS(=O)(=O)O (stereo not drawn) [taurodihydrofusidate]
[3]
  enhancement of peptide absorption in the lung: effectively enhance peptide absorption in the lung

## des-^1Lys^18Arg^25, 28Pro-h-amylin
[1]
  amylin activity in vivo: show amylin activity in vivo

## des-^1Lys-h-amylin (CNTATCATQRLANFLVHSSNNFGAILSSTNVGSNTY; ends and bridges not checked; cysteine pairing not given here; UniProt P10997 35-70, looked up, fragment)
[1]
  amylin activity in vivo: show amylin activity in vivo

## ^25Pro^26Val^28, 29Pro-h-amylin
[2]
  solubility and stability characteristics: more desirable solubility and stability characteristics

## ^28Pro-h-amylin (KCNTATCATQRLANFLVHSSNNFGAILPSTNVGSNTY; ends and bridges not checked; cysteine pairing not given here; UniProt P10997 34-70, looked up, variant S28P)
[1]
  amylin activity in vivo: show amylin activity in vivo
